Reference: ChEMBL document CHEMBL1130240, “Synthesis and structure-activity profiles of A-homoestranes, the estratropones” (J Med Chem, 1997)

Experiments:
Tubulin beta chain [1] = target: T1, Tubulin beta chain (Bos taurus, UniProt Q6B856); experiment: (§1) Inhibition of tubulin polymerization; assay type: functional
Tubulin (Bos taurus) = Tubulin (Bos taurus) (UniProt Q6B856+Q862L2+Q862F3); experiment: Inhibition of tubulin polymerization by colchicine to that of compound (IC50colchicine/IC50 drug); assay type: functional
Tubulin beta chain [2] = target: T1, Tubulin beta chain; experiment: as §1

T1 sequence (Q6B856 whole entry): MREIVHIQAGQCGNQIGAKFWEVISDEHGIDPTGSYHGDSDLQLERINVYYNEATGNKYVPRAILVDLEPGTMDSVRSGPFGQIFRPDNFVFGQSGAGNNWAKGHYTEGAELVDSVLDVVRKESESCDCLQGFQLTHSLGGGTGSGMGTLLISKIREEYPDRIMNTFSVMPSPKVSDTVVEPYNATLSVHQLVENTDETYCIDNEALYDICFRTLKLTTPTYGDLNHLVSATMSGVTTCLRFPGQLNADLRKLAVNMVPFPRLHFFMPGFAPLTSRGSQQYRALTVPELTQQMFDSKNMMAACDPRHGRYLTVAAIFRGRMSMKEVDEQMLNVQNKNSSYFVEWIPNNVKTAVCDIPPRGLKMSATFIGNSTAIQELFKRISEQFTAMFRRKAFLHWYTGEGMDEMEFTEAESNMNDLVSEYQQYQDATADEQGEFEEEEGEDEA

An IC50 (Tubulin beta chain [1]) of 4.4 µM and an Activity (Tubulin (Bos taurus)) of 2.5 were found for `C[C@]12CC[C@@H]3c4ccc(=O)ccc4CC[C@H]3[C@@H]1CC[C@@H]2O` in this work.

An IC50 (Tubulin beta chain [1]) of 2.8 µM and an Activity (Tubulin (Bos taurus)) of 4 were found for `C[C@]12CC[C@@H]3c4ccc(Cl)c(=O)cc4CC[C@H]3[C@@H]1CC[C@@H]2O` in this work.

An IC50 (Tubulin beta chain [2]) of 11.2 µM was found for `C[C@]12CC[C@@H]3c4ccc(=O)c(Br)cc4CC[C@H]3[C@@H]1CC[C@@H]2O` in this work.

An IC50 (Tubulin beta chain [1]) of 2.9 µM and an Activity (Tubulin (Bos taurus)) of 3.9 were found for `C[C@]12CC[C@@H]3c4ccc(Br)c(=O)cc4CC[C@H]3[C@@H]1CC[C@@H]2O` in this work.

An IC50 (Tubulin beta chain [1]) of 9.8 µM and an Activity (Tubulin (Bos taurus)) of 1.1 were found for `C[C@]12CC[C@@H]3c4ccc(=O)c(Cl)cc4CC[C@H]3[C@@H]1CC[C@@H]2O` in this work.

An IC50 (Tubulin beta chain [2]) of 2.1 µM was found for `COc1cc2c(ccc1=O)[C@H]1CC[C@]3(C)[C@@H](O)CC[C@H]3[C@@H]1CC2` in this work.

An IC50 (Tubulin beta chain [2]) of 29.8 µM was found for `COc1cc2c(ccc1=O)CC[C@@H]1[C@@H]2CC[C@]2(C)[C@@H](O)CC[C@@H]12` in this work.

An IC50 (Tubulin beta chain [2]) of 7.2 µM was found for `C[C@]12CC[C@@H]3c4cccc(=O)cc4CC[C@H]3[C@@H]1CC[C@@H]2O` in this work.

An IC50 (Tubulin beta chain [2]) of 27.5 µM was found for `COc1ccc2c(cc1=O)[C@H]1CC[C@]3(C)[C@@H](O)CC[C@H]3[C@@H]1CC2` in this work.

An IC50 (Tubulin beta chain [2]) of 5.9 µM was found for `CCOc1cc2c(ccc1=O)[C@H]1CC[C@]3(C)[C@@H](O)CC[C@H]3[C@@H]1CC2` in this work.

An IC50 (Tubulin beta chain [2]) of 8.1 µM was found for `COc1ccc2c(cc1=O)CC[C@@H]1[C@@H]2CC[C@]2(C)[C@@H](O)CC[C@@H]12` in this work.

An IC50 (Tubulin beta chain [2]) of 14.2 µM was found for `COc1cc2c(cc1O)CC[C@@H]1[C@@H]2CC[C@]2(C)[C@@H](O)CC[C@@H]12` [2-METHOXYESTRADIOL] in this work.
